Measured values published in patent US20210298332A1, “AGENT FOR SUPPRESSING HEAT-RESISTANT ACIDOPHILIC BACTERIA, METHOD FOR PREVENTING CONTAMINATION WITH HEAT-RESISTANT ACIDOPHILIC BACTERIA, AND BEVERAGE” (SUNTORY HOLDINGS LIMITED, priority 2018, published 2021).
≈ marks a conversion by molar mass, not a printed value.

Tested on: Thermo-Acidophilic Bacilli (Alicyclobacillus acidoterrestris ATCC 49025)
Assay: Evaluation of antibacterial action (agar plate dilution MIC)
Type: cell-based
Method: Thermo-Acidophilic Bacilli (Alicyclobacillus acidoterrestris ATCC 49025) were pre-incubated as test bacteria (conditions: YSG broth, 50±1° C., two days, aerobic conditions), so that a test bacterial solution was obtained. A 10 mg/mL xanthohumol solution and serial two-fold dilutions thereof were prepared using 99.5% ethanol. Each of the solution and dilutions was added to a medium (YSG agar medium) whose temperature is maintained at 50±1° C. after being sterilized and dissolved at a ratio of 1/99 (volume of xanthohumol solution/volume of medium solution) and mixed sufficiently. The resulting mixtures were each dispensed into a petri dish and solidified, whereby agar plate media were produced. Each of the agar plate media was smeared with the pre-incubated test bacterial solution, followed by incubation at 50±1° C. for five days under aerobic conditions. The lowest concentration where the growth of the bacteria was prevented was taken as the minimum inhibitory concentration (MIC).

MIC (ATCC49025, 120 h, YSG agar medium, 50±1° C., five days, aerobic conditions): 3.13 µg/mL (≈ 8.83 µM)
Compound: COc1cc(O)c(CC=C(C)C)c(O)c1C(=O)/C=C/c1ccc(O)cc1 [Xanthohumol]
growth of Thermo-Acidophilic Bacilli: inhibit the growth
